Source: paper PMC9967275, “Screening the Pathogen Box to Discover and Characterize New Cruzain and TbrCatL Inhibitors” (Pathogens, 2023)

Key:
[1] = target: cruzain (Trypanosoma cruzi, UniProt P25779); assay: biochemical; conditions: for Cruzain 0’ Inhibition / Cruzain 10’ Inhibition: sheet "Screening results"
How it was run: (§1)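 Recombinant enzymes assayed by Z-Phe-Arg-AMC cleavage at 25 °C, fluorescence 340/440 nm over 5–7 min, with 10 min or no enzyme–compound preincubation.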

[2] = target: T1, TbrCatL (Trypanosoma brucei rhodesiense, UniProt Q95PM0); assay: TbrCatL enzymatic inhibition assay (cleavage of fluorogenic substrate Z-FR-AMC); type: biochemical; conditions: for TbrCatL 0’ Inhibition / TbrCatL 10’ Inhibition: sheet "Screening results"
T1 construct: Conor Caffrey (University of California San Diego)
How it was run: as §1

[3] = 0’ (no pre-incubation), sheet Screening results
[4] = 10’ (pre-incubation), sheet Screening results
[5] = 0’ (pre-incubation time), Pathogen Box screening results
[6] = 10’ (pre-incubation time), Pathogen Box screening results
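Also: at 5 µM compound concentration.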

T1 sequence (Q95PM0 entry or part of it): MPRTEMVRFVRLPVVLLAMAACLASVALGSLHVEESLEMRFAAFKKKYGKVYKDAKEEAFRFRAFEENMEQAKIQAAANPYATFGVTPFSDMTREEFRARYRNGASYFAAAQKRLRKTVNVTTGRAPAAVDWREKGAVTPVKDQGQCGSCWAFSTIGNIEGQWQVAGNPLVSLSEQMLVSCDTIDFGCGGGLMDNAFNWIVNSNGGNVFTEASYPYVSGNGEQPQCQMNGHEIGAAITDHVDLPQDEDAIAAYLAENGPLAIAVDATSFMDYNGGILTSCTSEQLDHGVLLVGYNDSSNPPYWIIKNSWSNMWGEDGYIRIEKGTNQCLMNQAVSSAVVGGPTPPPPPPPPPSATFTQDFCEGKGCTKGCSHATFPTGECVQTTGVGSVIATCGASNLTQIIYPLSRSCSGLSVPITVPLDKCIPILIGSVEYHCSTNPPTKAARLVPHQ
cruzain, sequence (P25779 123-337 limits assumed): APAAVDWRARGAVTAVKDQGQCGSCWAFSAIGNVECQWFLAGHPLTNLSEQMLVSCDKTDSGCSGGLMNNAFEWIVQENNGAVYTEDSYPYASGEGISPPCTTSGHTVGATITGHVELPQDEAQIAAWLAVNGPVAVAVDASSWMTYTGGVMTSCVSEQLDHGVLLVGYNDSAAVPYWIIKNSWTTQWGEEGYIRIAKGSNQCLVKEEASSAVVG

Row | Compound | Cruzain 0’ Inhibition ([1]; 0’ (pre-incubation time)) [%] | Cruzain 10’ Inhibition ([1]; 10’ (pre-incubation time)) [%] | TbrCatL 0’ Inhibition ([2]; 0’ (pre-incubation time)) [%] | TbrCatL 10’ Inhibition ([2]; 10’ (pre-incubation time)) [%] | other results
1 | O=C(Nc1nc(-c2ccccn2)cs1)C1CC1c1ccccc1F (centres unmarked) [MMV1028806] | – | – | – | – | Cruzain Inhibition 0’ [1, 3]: 24%; Cruzain Inhibition 10’ [1, 4]: 17%; TbrCatL Inhibition 0’ [2, 3]: 17%; TbrCatL Inhibition 10’ [2, 4]: 3.6%
2 | CNC(=O)CNc1nc(-c2ccccn2)nc2scc(-c3ccccc3)c12 [MMV1029203] | -6 | 28 | -10 | -7 | –
3 | CCCn1c(NC(=O)c2ccc3ccccc3n2)nc2ccccc21 [MMV1030799] | -3.4 | 2.4 | -8 | -11 | –
4 | CCNC(=O)C(C)Nc1nc(-c2cccnc2)nc2sc(C)c(C)c12 (centres unmarked) [MMV1037162] | -0.8 | 1.7 | 6 | -0.5 | –
5 | Cc1ccc(-c2nc(CN(Cc3ccccn3)C(C)C)cs2)o1 [MMV1088520] | -17 | -15 | -6 | -24 | –
6 | COc1cccn2c(C(=O)N3CCCCC3)c(C(F)(F)F)nc12 [MMV1110498] | – | – | – | – | Cruzain Inhibition 0’ [1, 3]: 8%; Cruzain Inhibition 10’ [1, 4]: 9%; TbrCatL Inhibition 0’ [2, 3]: 13%; TbrCatL Inhibition 10’ [2, 4]: 6.4%
7 | Cc1cc(OCC(=O)Nc2ccc(C(C)C)cc2)n(C)c(=O)c1C#N [MMV1198433] | -4.6 | -6 | -5 | -4.5 | –
8 | CCOC(=O)c1noc(N)c1-c1ccccc1 [MMV1236379] | – | – | – | – | Cruzain Inhibition 0’ [1, 5]: -8%; Cruzain Inhibition 10’ [1, 6]: 7%; TbrCatL Inhibition 0’ [2, 5]: -9%; TbrCatL Inhibition 10’ [2, 6]: -1.7%
